From patent US7189760B2, “Physiological cooling compositions containing highly purified ethyl ester of N-[[5-methyl-2-(1-methylethyl) cyclohexyl] carbonyl]glycine” (Millennium Specialty Chemicals, priority 2004, dated 2007)

Key:
[1] = cited from earlier work; for sensitivity threshold (corrected data): J. Soc. Cosmet. Chem., 1978, vol. 29, pp. 185–200
[2] = lower threshold = stronger coolant; data of U.S. Pat. Nos. 4,060,091 etc.; cited from earlier work
[3] = visual and organoleptic test of aqueous solution of the product; assay type: in vivo; conditions: 25 ppm aqueous solution
Description: (§1) Further, the aqueous solutions of products for organoleptic tests were obtained by dissolving appropriate amounts of the products in dipropylene glycol DPG and adding the solution in DPG to an appropriate amount of water.

[4] = comparison of cooling strength to WS-3 in oral application; assay type: in vivo; conditions: for cooling strength relative to WS-3 (times stronger): aqueous solutions, vs 10 ppm WS-3
Description: as §1
A comparison basis aqueous solution of WS-3 (compound 5) was prepared containing 10 ppm concentration of WS-3.
Aqueous solutions were prepared containing various concentrations of the purified compound 10: 2 ppm, 3 ppm, 4 ppm, 5 ppm, and higher. These solutions were tested in oral application in comparison to the basis solution of 10 ppm of WS-3.
Aqueous solutions were prepared containing various concentrations of the purified compound 10: 2 ppm, 3 ppm, 3.5 ppm, 4 ppm, 5 ppm, and higher. These solutions were tested in oral application in comparison to the basis solution of 10 ppm of WS-3.

[5] = sensitivity threshold (cooling strength) of N-monosubstituted p-menthane-3-carboxamides, prior-art patents; assay type: in vivo; conditions: from patent thresholds 0.2 vs 0.3 μg
Description: With specific reference to structure 6, substituent “X” is commonly selected from the lower linear or branched alkyl substituents, functionally substituted alkyl substituents, or aryl substituents. To that end, U.S. Pat. Nos. 4,060,091; 4,136,163; 4,150,052; 4,178,459; 4,193,936; and 4,226,988, the entire disclosures of which are hereby incorporated by reference for all purposes, give a comparison of cooling strengths of certain N-monosubstituted p-menthane-3-carboxamides numerically expressed as sensitivity thresholds in μg, wherein a lower threshold value correlates to a stronger coolant effect. Of the compared compounds, the only commercially used N-monosubstituted p-menthane-3-carboxamide compound is the WS-3 coolant, having a sensitivity threshold of 0.3 μg.

volatility = assay type: physicochemical; conditions: compared with menthol

For `CCNC(=O)C1C[C@H](C)CCC1C(C)C` (stereo in doubt) [WS-3, N-ethyl-p-menthane-3-carboxamide, reference compound], the “sensitivity threshold (corrected data)” value [1] is given as 0.2 µg and the sensitivity threshold [2] is given as 0.3 µg.

With `CCOC(=O)CNC(=O)C1CC(C)CCC1C(C)C` (stereo not drawn) [Comparative Synthetic and Organoleptic Example 1] [ethyl ester of N-[[5-methyl-2-(1-methylethyl)cyclohexyl]carbonyl]glycine, reference compound] the tingling/cooling sensation [3] was “noticeable tingling/cooling sensation”.

For `CCOC(=O)CNC(=O)C1CC(C)CCC1C(C)C` (stereo not drawn) [Comparative Synthetic and Organoleptic Example 2 after the a] [ethyl ester of N-[[5-methyl-2-(1-methylethyl)cyclohexyl]carbonyl]glycine, reference compound], the tingling/cooling sensation [3] was “strong tingling/cooling sensation”.

In the case of `CCOC(=O)CNC(=O)C1CC(C)CCC1C(C)C` (stereo not drawn) [Comparative Synthetic and Organoleptic Example 2] [ethyl ester of N-[[5-methyl-2-(1-methylethyl)cyclohexyl]carbonyl]glycine, reference compound], the tingling/cooling sensation [3] is reported as “strong tingling/cooling sensation”.

With `CCOC(=O)CNC(=O)C1CC(C)CCC1C(C)C` (stereo not drawn) [Inventive Example 1, ethyl ester of N-[[5-methyl-2-(1-methylethyl)cyclohexyl]carbonyl]glycine] the tingling/cooling sensation [3] was “very strong tingling/cooling sensation”, the “cooling effect compared to basis solution of 10 ppm WS-3” value ([4]; 4 ppm aqueous solution) was “approximately equal cooling effect” and the “cooling effect compared to basis solution of 10 ppm WS-3” value ([4]; 5 ppm aqueous solution) was “stronger and longer lasting cooling effect”. The “cooling strength relative to WS-3 (times stronger)” value [4] was “approximately 2.5 times”.

With `CCOC(=O)CNC(=O)C1CC(C)CCC1C(C)C` (stereo not drawn) [Inventive Example 2, ethyl ester of N-[[5-methyl-2-(1-methylethyl)cyclohexyl]carbonyl]glycine] the tingling/cooling sensation [3] was “very strong tingling/cooling sensation”.

With `CCOC(=O)CNC(=O)C1CC(C)CCC1C(C)C` (stereo not drawn) [Inventive Example 3 (A), ethyl ester of N-[[5-methyl-2-(1-methylethyl)cyclohexyl]carbonyl]glycine] the tingling/cooling sensation [3] was “very strong tingling/cooling sensation”.

For `CCOC(=O)CNC(=O)C1CC(C)CCC1C(C)C` (stereo not drawn) [Inventive Example 3, ethyl ester of N-[[5-methyl-2-(1-methylethyl)cyclohexyl]carbonyl]glycine], the tingling/cooling sensation ([3]; listed as Inventive Example 3 (B)) was “extremely strong and pleasant tingling/cooling sensation”, the “cooling effect compared to basis solution of 10 ppm WS-3” value ([4]; 3.5 ppm aqueous solution) was “approximately equal cooling effect” and the “cooling effect compared to basis solution of 10 ppm WS-3” value ([4]; 4 ppm aqueous solution) was “stronger and longer lasting cooling effect”. For the same compound, the “cooling strength relative to WS-3 (times stronger)” value [4] was “approximately 3 times”.

For `CCOC(=O)CNC(=O)C1CC(C)CCC1C(C)C` (stereo not drawn) [Inventive Example 4, ethyl ester of N-[[5-methyl-2-(1-methylethyl)cyclohexyl]carbonyl]glycine], the tingling/cooling sensation [3] was “very strong tingling/cooling sensation”.

For `CCOC(=O)CNC(=O)C1CC(C)CCC1C(C)C` (stereo not drawn) [Inventive Example 5, ethyl ester of N-[[5-methyl-2-(1-methylethyl)cyclohexyl]carbonyl]glycine], the tingling/cooling sensation [3] was “very strong tingling/cooling sensation”.

In the case of `Cc1ccc(NC(=O)C2CC(C)CCC2C(C)C)cc1C` (stereo not drawn) [compound 7], the sensitivity threshold [2] is listed as 0.1 µg.

For `Cc1ccc(NC(=O)C2CC(C)CCC2C(C)C)cc1O` (stereo not drawn) [compound 8], the sensitivity threshold [2] is given as 0.1 µg.

In the case of `CCOC(=O)CNC(=O)C1CC(C)CCC1C(C)C` (stereo not drawn) [compound 10, ethyl ester of N-[[5-methyl-2-(1-methylethyl)cyclohexyl]carbonyl]glycine], the “cooling strength relative to WS-3 (times stronger)” value [5] is given as 1.5 times, the “sensitivity threshold (corrected data)” value [1] is given as 0.13 µg and the “cooling strength relative to compound 5 (times stronger)” value ([1]; from corrected thresholds 0.13 vs 0.2 μg) is given as “approximately 1.5 times”. For the same compound, the sensitivity threshold [2] was 0.2 µg and the volatility (volatility) was “much lower volatility than menthol”.
